This note sets out measurements from patent US6172102A, “Pyrrole derivatives and medicinal composition” (Nippon Shinyaku Co., Ltd., priority 1995, dated 2001).

The assay has as its system urinary bladder. Description: Cystometrography (rats): bladder capacity after intraduodenal administration. It counts as in vivo. The conditions noted are these: female SD rats, urethane anesthesia, max of 0.5, 1, 2, 3 h, mean. As to the method: Cystometrography is a method for ascertaining the relation between intravesical pressure and bladder capacity and provides information on the time course of condition of the urinary bladder from urine filling to micturition, the possible involuntary contraction of the urinary bladder, and the contractility of the detrusor muscle during micturition.
The experiment was performed using 9 to 13-weeks old female SD rats in groups of 3-5. After a median incision was made in the abdominal region under urethane anesthesia, a polyethylene indwelling cannula was inserted into the urinary bladder dome through the apex of the urinary bladder and fixed. The other end of the cannula was connected to a T-tube for infusion of saline via one branch and changes in intravesical pressure were recorded via the other branch. When warmed saline was continuously infused into the urinary bladder at a constant rate, the urinary bladder was distended and, when the pressure reached a threshold, the urinary bladder underwent rapid contractions and at the same time a micturition was induced. This procedure was repeated until the volume of saline from the start of infusion to the threshold intravesical pressure (bladder capacity) became steady giving approximately constant values in at least two consecutive determinations. Then, the test compound was administered into the duodenum. The bladder capacity was measured immediately before administration of the test compound and 0.5, 1, 2, and 3 hours after administration. The maximum increase rate (%) in bladder capacity was calculated by means of the following equation.
Maximum increase rate in bladder capacity=[(A-B)/B]×100
where B represents the bladder capacity value immediately before administration of the test compound and A represents the maximum bladder capacity at 0.5, 1, 2, and 3 hours after administration of the test compound. The data shown are mean values.

Molecules are shown by their SMILES.

Turning to `CCCOC(C(=O)OC1CCN(C)CC1)(c1ccccc1)c1ccccc1` [Propiverine, propiverine, reference compound], the “Maximum increase rate (%) in bladder capacity” value (shortened to “Maximum increase rate (%)”) (100 mg/kg) stood at 42.0%. As for `Cc1c(-c2ccccc2)[nH]c(N)c1C#N` [R1, 2-Amino-3-cyano-4-methyl-5-phenylpyrrole, reference compound], the “Maximum increase rate (%)” value (3 mg/kg) worked out at 63.6%. Still for that read-out and setting: in the case of `Cc1c(-c2ccccc2F)[nH]c(N)c1C#N` [compound 1, 2-Amino-3-cyano-4-methyl-5-(2-fluorophenyl)pyrrole] it was 60.8%. Turning to `Cc1c(-c2cccnc2)[nH]c(N)c1C#N` [compound 8, 2-Amino-3-cyano-4-methyl-5-(3-pyridyl)pyrrole], the “Maximum increase rate (%)” value (30 mg/kg) is given as 55.4%. Turning to `N#Cc1cc(-c2ccccc2)[nH]c1N` [compound 15], where the note is “10 mg/kg”, the “Maximum increase rate (%)” value is on record as 53.8%. The same measure, in the same setting: under `N#Cc1cc(-c2ccc(F)cc2)[nH]c1N` [compound 41] stands 38.8%. Take `Cc1c(-c2cc(F)ccc2F)[nH]c(N)c1C#N` [compound 63, 2-Amino-3-cyano-4-methyl-5-(2,5-difluorophenyl)pyrrole]: where the note is “3 mg/kg”, the “Maximum increase rate (%)” value was 49.9%.
